From patent publication US9770469B2, “Methods of reprogramming renal cells” (Tel HaShomer Medical Research Infrastructure and Services …, priority 2009, dated 2017)

Tests used:
[1] = test system: HAK cells; assay: Culture passage with transient or constant VPA (qRT-PCR, morphology); type: cell-based, human; settings: for cell morphology: culture passage
Procedure: Quantitative Reverse Transcription-PCR: Total RNA from kidney tissue cultured cells was isolated using the TRIZOL reagent (Invitrogen) according to the manufacturer's protocols. cDNA synthesis was carried out using Verso kit (Thermo scientific) with Random primers. Quantitative RT PCR was performed using an ABI7900HT sequence detection system (Perkin-Elmer/Applied Biosystems) in the presence of SYBR green (SYBR green PCR kit; Qiagen). Each analysis reaction was performed in duplicates or triplicates. GapDH was used as an endogenous control throughout all experimental analyses. Analysis was performed using the −ΔΔCt method, which determines fold changes in gene expression relative to a comparator sample. Maintaining re-induction of Six2/Osr1 in cultured human kidney cells is potentially important if such cells were to be propagated in vitro for the purpose of cell therapy. The present inventors therefore determined whether Six2 and Osr1 are maintained upon tissue culture passage of adult cells. Two treatment protocols were employed; the first, 24-hour exposure to 4 mM VPA and the second constant exposure to VPA.

[2] = test system: human adult kidney cells; assay: qRT-PCR gene expression after TSA/AzaC or VPA treatment; type: cell-based; settings: HAK cells, 24 h VPA, particularly in VPA-2 mM
[3] = test system: human adult kidney cells; assay: as above; type: cell-based
Text: (§1) Tissue Samples: human tissues samples were collected according to the Helsinki requirements. Human fetal kidney cells (HFK) were collected from elective abortions at fetal gestational age ranged from 15 to 19 weeks. Normal human adult kidney cell (HAK) samples were retrieved from borders of RCC tumors from partial nephrectomy patients. Establishment of Primary Cultures from Human Kidney Tissues: Collected tissues were minced in HBSS, soaked in IMDM Medium (Invitrogen) supplemented with 0.1% collagenase II (Invitrogen). The digested tissue was then gradually forced through a 100 μm, 70 μm and 50 μm cell strainer to achieve a single cell suspension, and cultured in growth medium supplemented with FBS 10%, L-Glutamin 1%, Pen-Strep 1% and growth factors: 50 ng/ml of bFGF, 50 ng/ml of EGF and 5 ng/ml of SCF (R&D systems). Cell Treatment: […] Otherwise, cells were treated for 24 hours with growth medium supplemented with the combination of 75 μM TSA (Sigma) and 250 μM 5-AZA (Sigma) or with 100% Ethanol and Acetic Acid (Acetic Acid: H2O 1:1) for control sample. […] 24 hours prior to harvesting VPA at a concentration of 4 mM was added to the cell culture. Quantitative Reverse Transcription-PCR: Total RNA from kidney tissue cultured cells was isolated using the TRIZOL reagent (Invitrogen) according to the manufacturer's protocols. cDNA synthesis was carried out using Verso kit (Thermo scientific) with Random primers. Quantitative RT PCR was performed using an ABI7900HT sequence detection system (Perkin-Elmer/Applied Biosystems) in the presence of SYBR green (SYBR green PCR kit; Qiagen). Each analysis reaction was performed in duplicates or triplicates. GapDH was used as an endogenous control throughout all experimental analyses. Analysis was performed using the −ΔΔCt method, which determines fold changes in gene expression relative to a comparator sample.

[4] = test system: human fetal kidney cells; assay: as above; type: cell-based
Text: as §1

[5] = test system: Oct4 OE HAK cells; assay: qRT-PCR of Oct4 over-expressing HAK cells with or without VPA; type: cell-based, human
[6] = test system: human adult kidney cells; assay: Flow cytometry of renal progenitor surface markers after VPA; type: cell-based; settings: 24 h 4 mM VPA, FACS
Procedure: (§2) Cell Treatment: Cells were treated for 24 hours with growth medium supplemented with 1, 2, or 4 mM VPA (Sigma) or with H2O for control sample. Otherwise, cells were treated for 24 hours with growth medium supplemented with the combination of 75 μM TSA (Sigma) and 250 μM 5-AZA (Sigma) or with 100% Ethanol and Acetic Acid (Acetic Acid: H2O 1:1) for control sample. […] 24 hours prior to harvesting VPA at a concentration of 4 mM was added to the cell culture.
(§3) Flow Cytometry: Cells were detached from culture plated with non-enzymatic cell dissociation solution (Sigma-Aldrich). Cells (1×10^5 in each reaction) were suspended in 50 μl of FACS buffer [0.5% BSA and 0.02% sodium azid in PBS (Sigma-Aldrich and Invitrogen, respectively)] and blocked with FcR Blocking Reagent (MiltenyiBiotec) and human serum (1:1) for 15 minutes. Cells were then incubated for 45 minutes with the following primary antibodies: CD24-PE, NCAM1-PE, (both from eBioscience), CD133-APC, PSA-NCAM (both from MiltenyiBiotec), FZD7-biotin, NTRK2 (both from R&D Systems) or a matching isotype control. Cells were washed with FACS buffer, and incubated for 30 minutes with a secondary antibody if needed: goat anti mouse Streptavidin-APC (BD) or goat anti mouse Alexa Fluor 647 (Invitrogen). Cell's labeling was detected using FACSCalibur (BD). Flow cytometry results were analyzed using FlowJo analysis software. Viable cells were gated by both their FSC/SSC profile and 7AAD (eBioscience) exclusion.

[7] = test system: human fetal kidney cells; assay: as above; type: cell-based; settings: 24 h 4 mM VPA, FACS
Procedure: as §2, §3

[8] = P0 cells, transient 24-hour exposure to 4 mM VPA
[9] = later passages, transient 24-hour exposure to 4 mM VPA
[10] = HAK cells, 24 h, TSA/AzaC or VPA 1-4 mM, vs untreated control
[11] = HAK cells, 24 h, TSA/AzaC or all VPA concentrations (1, 2, 4 mM)
[12] = HFK cells, 24 h, TSA/AzaC or VPA
[13] = HFK cells, 24 h, TSA/AzaC or VPA (lesser extent than Six2)

## CCCC(CCC)C(=O)O [VPA, valproic acid]
[1]; [8]
  Osr1 gene levels: re-induced
  Six2 gene levels: re-induced
[1]; constant VPA exposure, P1-P3
  Osr1 gene levels upon culture passage: significant Six2 and Osr1 re-induction
  Six2 gene levels upon culture passage: significant Six2 and Osr1 re-induction
[1]; constant VPA exposure, P3 cells
  Six2 gene levels: even further up-regulated
[1]; constant VPA exposure
  cell morphology: epithelial-like cell morphology
[1]; [9]
  Osr1 gene levels: remained similar to controls
  Six2 gene levels: remained similar to controls
[1]; transient 24-hour VPA exposure
  cell morphology: fibroblastic morphology
[2]
  Oct4 mRNA expression change: significantly up-regulated
[3]; HAK cells, 24 h, TSA 75 μM + 5-AZA 250 μM, or VPA 1, 2, 4 mM (dose-dependent), vs untreated control
  Six2 mRNA reinduction: five-fold
[3]; HAK cells, 24 h, TSA/AzaC or VPA
  Vimentin mRNA expression change: mostly unchanged
[3]; [10]
  Osr1 mRNA expression change (re-activation): upregulated in a dose-dependent manner
  Pax2 mRNA expression change (re-activation): mildly elevated
  Sall1 mRNA expression change (re-activation): upregulated in a dose-dependent manner
  Wt1 mRNA expression change (re-activation): reduced
[3]; [11]
  Klf4 mRNA expression change: significantly up-regulated
  Nanog mRNA expression change: significantly up-regulated
[3]; HAK cells, 24 h, TSA/AzaC, or VPA (effect at 2 mM, 4 mM)
  E-cadherin mRNA expression change: mildly elevated
[3]; HAK cells, 24 h treatment
  Oct4 mRNA expression change: remained unchanged
[3]; VPA-treated adult kidney cells
  Wnt4 mRNA levels: strong up-regulation
  β-catenin mRNA levels: elevation
[4]; HFK cells, 24 h, 4 mM VPA
  Klf4 mRNA increase: two-five
  Nanog mRNA increase: two-five
  Oct4 mRNA increase: two-five
[4]; [12]
  E-cadherin mRNA expression change: significantly elevated
  Pax2 mRNA expression change: mild elevation
  Wt1 mRNA expression change: reduction
[4]; [13]
  Osr1 mRNA expression change: dose-dependent activation
  Sall1 mRNA expression change: dose-dependent activation
[4]; HFK cells, 24 h VPA, dose-dependent
  Six2 mRNA induction: four-fold
[4]; VPA-treated fetal kidney cells
  Wnt4 mRNA levels: strong up-regulation
  β-catenin mRNA levels: elevation
[5]
  Six2 expression, VPA exposure combined with Oct4 OE: higher Six2 expression pattern compared to each of the single manipulations
[6]; especially in the adult kidney
  PSA-NCAM surface expression elevation: 5-10 fold
[6]; adult kidney cells
  CD133 surface expression: milder changes
  NCAM surface expression levels: significant upregulation
[7]
  CD133 surface expression: milder changes
  NCAM surface expression levels: significant upregulation
  PSA-NCAM surface expression levels: significant upregulation
